Laboratory results: patent publication US20090318527A1, “INDOLE COMPOUNDS AND METHODS OF USE THEREOF” (priority 2008, published 2009)

Assays:
mice [1] = experiment: Appetite suppression studies in food-deprived mice; assay type: in vivo; details: mice food-deprived 18 hours, i.p.; for % Reduction from control (food consumption): p <0.05 versus saline control
Description: Mice were deprived of food, but not water, for 18 hours. They were then injected i.p. with test compounds dissolved in 0.9% NaCl containing 1 mg per ml ascorbic acid for protection against oxidation. Each mouse was placed in an individual cage for 30 minutes and then presented with a small petri dish containing a gel made from gelatin, powdered milk and sucrose. The dish was weighed at zero time and at 15-minute intervals for the next hour in order to quantitate food consumption. Controls were injected with saline-ascorbic acid; ±fenfluramine was used as an active control.

mice [2] = experiment: Serotonin-induced scratching in mice (animal model for OCD); assay type: in vivo, male Swiss-Webster mice
Description: The subjects were male Swiss-Webster mice, 4-6 weeks old, weighing 25-45 g. Mice were housed 5 per cage, given free access to standard mouse food and water except during experiments, and maintained in a temperature-controlled room (70° F.). Serotonin and all test drugs were made up with ascorbic acid to protect against oxidation. Two mice, one a control, the other experimental, were tested each time. Each mouse was separately placed into a plexiglas box.
Mice were injected subcutaneously between the shoulder blades with 0.1 ml of serotonin, 0.4 mg per ml in 0.15 M saline plus ascorbic acid, 1 mg/ml. […] The cumulative number of scratches with a hind leg was recorded at 5 minute intervals for 30 minutes. One saline injected control and one test animal were tested together in each assay.

5-HT2C [3] = biological target: T1, 5-HT2C (Homo sapiens, UniProt P28335); experiment: Intracellular calcium flux assay, HEK 293 cells stably expressing 5-HT2C; assay type: cell-based; design: expressed in transfected cells; host or cells: HEK 293; details: for Emax: HEK293, read-out: 5-HT2C efficacy as percentage of the maximal 5-HT response ± SD, at least three independent experiments, entries marked a (42, 50, 51, 52) single measurements; for EC50: at least three independent experiments, entries marked a (42, 50, 51, 52) single measurements, read-out: 5-HT2C mean EC50 ± SD;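 on all read-outs here: calcium dye fluorescence read on FLIPR Tetra as peak signal above baseline within 60 s of compound addition, seven concentrations from 10 pM to 10 µM, each in triplicate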
T1 sequence (P28335 33-458): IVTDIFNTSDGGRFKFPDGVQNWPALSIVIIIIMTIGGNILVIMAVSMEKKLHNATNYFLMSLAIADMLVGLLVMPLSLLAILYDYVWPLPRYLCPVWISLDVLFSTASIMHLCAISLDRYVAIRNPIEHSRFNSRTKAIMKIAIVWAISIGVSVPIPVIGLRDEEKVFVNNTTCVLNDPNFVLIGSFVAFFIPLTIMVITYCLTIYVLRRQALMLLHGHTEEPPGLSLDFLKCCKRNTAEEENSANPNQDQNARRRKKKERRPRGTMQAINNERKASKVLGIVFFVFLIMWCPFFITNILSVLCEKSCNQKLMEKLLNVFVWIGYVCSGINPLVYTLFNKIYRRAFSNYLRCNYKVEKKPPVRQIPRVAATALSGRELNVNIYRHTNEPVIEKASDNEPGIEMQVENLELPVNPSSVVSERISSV

human 5-HT2A receptor = biological target: T2, human 5-HT2A receptor (Homo sapiens, UniProt P28223); experiment: Intracellular calcium flux assay, HEK 293 cells stably expressing 5-HT2A; assay type: cell-based; details: for Emax at 10 µM: HEK293, read-out: 5-HT2A functional activity (N/A class);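 on all read-outs here: fluorescent calcium dye read on FLIPR Tetra, peak signal above baseline within 60 s after compound addition, seven concentrations spanning 10 pM to 10 µM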
T2 construct: expressed in transfected cells; host or cells: HEK 293

human 5-HT2B receptor = biological target: T3, human 5-HT2B receptor (Homo sapiens, UniProt P41595); experiment: Intracellular calcium flux assay, HEK 293 cells stably expressing 5-HT2B; assay type: cell-based; details: HEK293; at 10,000 nM; read-out: 5-HT2B functional activity (N/A class);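 further: calcium dye fluorescence read on a FLIPR Tetra, peak signal above baseline within 60 s after compound addition, seven-point concentration series from 10 pM up to 10 µM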
T3 construct: expressed in transfected cells; host or cells: HEK 293

5-HT2C [4] = biological target: T1, 5-HT2C; details: cited from earlier work
[5] = i.p. 5 minutes before serotonin s.c., 3 mg/kg
[6] = i.p., 3 mg/kg, p <0.05 versus saline control (*p = 0.09)
[7] = i.p. 5 minutes before serotonin s.c., 10 mg/kg
[8] = i.p., 10 mg/kg, p <0.05 versus saline control

T2 sequence (P28223 whole entry): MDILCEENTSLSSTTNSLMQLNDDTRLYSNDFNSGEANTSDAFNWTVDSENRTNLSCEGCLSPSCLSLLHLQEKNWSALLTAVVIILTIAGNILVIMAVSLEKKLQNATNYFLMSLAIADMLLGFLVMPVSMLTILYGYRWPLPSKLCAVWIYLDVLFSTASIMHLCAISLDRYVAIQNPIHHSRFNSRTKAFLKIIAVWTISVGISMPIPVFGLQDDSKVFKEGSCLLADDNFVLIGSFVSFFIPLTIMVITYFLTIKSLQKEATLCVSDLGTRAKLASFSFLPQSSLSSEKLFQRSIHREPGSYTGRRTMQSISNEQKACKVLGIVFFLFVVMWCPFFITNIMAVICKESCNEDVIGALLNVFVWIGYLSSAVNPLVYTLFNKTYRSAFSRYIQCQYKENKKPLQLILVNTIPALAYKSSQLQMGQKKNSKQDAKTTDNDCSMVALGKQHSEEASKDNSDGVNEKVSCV
T3 sequence (P41595 whole entry): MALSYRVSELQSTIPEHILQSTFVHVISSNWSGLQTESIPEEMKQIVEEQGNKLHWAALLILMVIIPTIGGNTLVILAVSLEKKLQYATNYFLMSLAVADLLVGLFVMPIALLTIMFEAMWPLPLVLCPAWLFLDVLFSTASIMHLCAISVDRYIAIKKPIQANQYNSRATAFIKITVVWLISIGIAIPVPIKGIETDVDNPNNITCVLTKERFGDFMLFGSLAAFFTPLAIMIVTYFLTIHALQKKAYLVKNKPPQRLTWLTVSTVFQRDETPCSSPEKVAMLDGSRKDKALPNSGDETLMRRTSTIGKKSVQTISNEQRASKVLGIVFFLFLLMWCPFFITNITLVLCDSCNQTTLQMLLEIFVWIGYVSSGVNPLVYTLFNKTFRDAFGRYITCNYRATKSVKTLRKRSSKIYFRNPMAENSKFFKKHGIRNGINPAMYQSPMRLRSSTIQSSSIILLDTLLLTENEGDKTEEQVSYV

| SMILES | Emax (5-HT2C [3]) [%] | EC50 (5-HT2C [3]) [nM] | Emax at 10 µM (human 5-HT2B receptor) [%] | Emax at 10 µM (human 5-HT2A receptor; at 10,000 nM) [%] | melting point [°C] | other results |
| --- | --- | --- | --- | --- | --- | --- |
| CCNC(C)Cc1cccc(C(F)(F)F)c1 (racemic) [(±)-Fenfluramine, reference compound] | – | – | – | – | – | Mean food consumption 60 min. after injection: g (±SEM) Compound (mice [1]; 5 mg/kg): 0.90 (.04) g; % Reduction from control (food consumption) (mice [1]; 5 mg/kg): 39%; Mean food consumption 60 min. after injection: g (±SEM) Compound (mice [1]; 10 mg/kg): 0.41 (.11) g; % Reduction from control (food consumption) (mice [1]; 10 mg/kg): 69%; Average Number of Scratches 30 min. after injection (±SEM) (mice [2]; [5]): 22.8 ± 11.7; % Reduction from control (scratches) (mice [2]; [6]): 95%; Average Number of Scratches 30 min. after injection (±SEM) (mice [2]; oral gavage, 10 mg/kg): 35 ± 25.8; % Reduction from control (scratches) (mice [2]; oral gavage, 10 mg/kg, p < 0.05): 94% |
| COc1ccc(F)c2c1c(CCN(C)C)cn2C [Compound 22, 2-(7-Fluoro-4-methoxy-1-methyl-1H-indol-3-yl)-N,N-dimethylethanamine] | 82 | 9.4 ± 4.9 | < 10 | – | – | Mean food consumption 60 min. after injection: g (±SEM) Compound (mice [1]; 10 mg/kg): 0.15 (0.1) g; % Reduction from control (food consumption) (mice [1]; 10 mg/kg): 77%; 5-HT2A response as percentage of the maximal 5-HT response @ 10,000 (human 5-HT2A receptor; at 10,000 nM, EC50 not reached): (21 ± 6 @ 10,000) %; EC50 (human 5-HT2A receptor; calcium flux, at least three independent experiments, each in triplicate, read-out: 5-HT2A mean EC50 ± SD): > 10000 nM; Average Number of Scratches 30 min. after injection (±SEM) (mice [2]; [7]): 4.7 ± 4.7; % Reduction from control (scratches) (mice [2]; [8]): 98.5%; Average Number of Scratches 30 min. after injection (±SEM) (mice [2]; oral gavage, 20 mg/kg): 102 ± 50.8; % Reduction from control (scratches) (mice [2]; oral gavage, 20 mg/kg, p < 0.05): 83% |
| COc1c(F)ccc2c1c(CCN(C)C)cn2C.Cl [Compound 40, 2-(5-Fluoro-4-methoxy-1-methyl-1H-indol-3-yl)-N,N-dimethylethanamine hydrochloride] | 72 | 3.1 ± 1.2 | < 10 | < 10 | 183.6 to 186.8 | Average Number of Scratches 30 min. after injection (±SEM) (mice [2]; [5]): 8.2 ± 5.1; % Reduction from control (scratches) (mice [2]; [6]): 97* % |
| CCCn1cc(CCN(C)C)c2c(OC)c(F)ccc21.Cl [Compound 42, 2-(5-Fluoro-4-methoxy-1-propyl-1H-indol-3-yl)-N,N-dimethylethanamine hydrochloride] | 34 | 741 | < 10 | < 10 | 111 to 113 | – |
| CN(C)CCc1cn(C)c2c(F)ccc(OCc3ccccc3)c12 [Compound 50, 4-Benzyloxy-3-(2-dimethylaminoethyl)-7-fluoro-1-methyl-1H-indole] | 81 | 282 | < 10 | < 10 | 60 to 62 | – |
| CN(C)CCc1cn(C)c2cc(F)cc(OCc3ccccc3)c12 [Compound 51, 4-Benzyloxy-3-(2-dimethylaminoethyl)-6-fluoro-1-methyl-1H-indole] | 99 | 233 | < 10 | < 10 | 79 to 80 | – |
| CN(C)CCc1cn(C)c2ccc(F)c(OCc3ccccc3)c12.Cl [Compound 52, 4-Benzyloxy-3-(2-dimethylaminoethyl)-5-fluoro-1-methyl-1H-indole hydrochloride] | 79 | 44 | < 10 | < 10 | 139 to 141 | – |
| COc1c(F)cc(F)c2c1c(CCN(C)C)cn2C.Cl [Compound 58, 2-(5,7-Difluoro-4-methoxy-1-methyl-1H-indol-3-yl)-N,N-dimethylethanamine hydrochloride] | 51 | 2.4 ± 0.44 | < 10 | < 10 | 185 to 189 | – |
| CCOc1c(F)ccc2c1c(CCN(C)C)cn2CC.Cl [Compound 60, 2-(4-Ethoxy-1-ethyl-5-fluoro-1H-indol-3-yl)-N,N-dimethylethanamine hydrochloride] | 69 | 4.2 ± 0.94 | < 10 | < 10 | 130 to 132 | – |
| CCCn1cc(CCN(C)C)c2c(OCC)c(F)ccc21.Cl [Compound 61, 2-(4-Ethoxy-5-fluoro-1-propyl-1H-indol-3-yl)-N,N-dimethylethanamine hydrochloride] | 38 | 13 ± 1.51 | < 10 | < 10 | 141 to 143 | – |
| CN(C)CCc1cn(C)c2c(F)ccc(F)c12.Cl [Compound 65, 2-(4,7-Difluoro-1-methyl-1H-indol-3-yl)-N,N-dimethylethanamine hydrochloride] | 41 | 16 ± 3.46 | < 10 | < 10 | 209 to 210 | – |
| COc1ccc(Br)c2c1c(CCN(C)C)cn2C.Cl [Compound 73, 2-(7-Bromo-4-methoxy-1-methyl-1H-indol-3-yl)-N,N-dimethylethanamine hydrochloride] | 48 | 274 ± 57.7 | < 10 | < 10 | 235 to 236 | – |
| CN(C)CCc1cn(C)c2cc(O)c(F)cc12 [Compound 82, 3-[2-(Dimethylamino-ethyl)]-5-fluoro-1-methyl-1H-indol-6-ol] | 83 | 589 ± 546 | < 10 | < 10 | 165 to 169 | – |
| CCCn1cc(CCN(C)C)c2cc(F)c(O)cc21 [Compound 84, 3-[2-(Dimethylamino-ethyl)]-5-fluoro-1-propyl-1H-indol-6-ol] | 70 | 507 ± 314 | < 10 | < 10 | 157 to 159 | – |
| CNCCC(Oc1ccc(C(F)(F)F)cc1)c1ccccc1 (stereo not shown) [Fluoxetine, reference compound] | – | – | – | – | – | Average Number of Scratches 30 min. after injection (±SEM) (mice [2]; [7]): 154.8 ± 105.2; % Reduction from control (scratches) (mice [2]; [8]): 63.5% |
| C[C@H](N)Cn1ccc2cc(F)c(Cl)cc21 [Ro 60-0175] | – | – | – | – | – | times more active at 5-HT2C as compared to 5-HT2A (5-HT2C [4]; 5-HT2C versus 5-HT2A): 25 times; selectivity over 5-HT2B receptors (5-HT2C [4]; 5-HT2C versus 5-HT2B): not selective |
